# pIC50, pKi: −log10 of the molar value.
# Experiments:
# M2PYK [1] = biological target: T1, M2PYK (Homo sapiens, UniProt P14618); experiment: Enzyme kinetics of M2PYK for PEP with saturating ADP in presence of amino acids; type: biochemical; conditions: kinetic curves at different inhibitor concentrations
# T1 construct: and N-terminal domain (blue, residues 13–43. Residues 1–12, as well as additional residues from the His6-tagged construct); made in house; host or cells: Escherichia coli BL21(DE3), pET28a
# Method: (§1) For the determination of kinetics of M2PYK in the absence/presence of amino acid modulators, enzymatic activity assays were performed as follows. A 5 µl aliquot of 0.002 mg/ml M2PYK in PBS-CM was incubated with different concentrations of amino acids in PBS-CM supplemented with 1 mM dithiothreitol at 37°C at pH 7.4 for 10 min. Then, the same volume of assay buffer [PBS-CM supplemented with 10 mM MgCl2, 100 mM KCl, 1 mM NADH, 40 µmol/min ml LDH, as well as saturating ADP (4 mM) and titrated substrate PEP (0.15–10 mM)] was added. […] For these uncompetitive inhibitors the Ki values were calculated to be equal to IC50/2.
# Values of the kinetic parameters (Vmax, K0.5(PEP), and nH) were determined by fitting the equation below to the data. V=Vmax×[PEP]^nH/K0.5nH+[PEP]^nH The Lineweaver–Burk plots were fit using the equation below: Y=K0.5nH+(1/x)^nH/Vmax×(1/x)^nH The Berkley Madonna software (http://www.berkeleymadonna.com/) was used to model approximate proportions of monomer and tetramer M2PYK at given total protein concentrations. The calculation was based on a simplified tetramer [T] monomer [M] equilibrium: [T]⇌[M]+[M]+[M]+[M]withKd=[M]^4/[T] […] The association rate constant was scaled to give a Kd of 0.9 µM, which was estimated from analytical gel chromatography results.
# The kinetic curves are shown in Figure 4 and Supplementary Figure S4.
# M2PYK [2] = biological target: T1, M2PYK; experiment: Analytical gel chromatography of M2PYK oligomerisation/dissociation; conditions: 10 mM amino acid; 0.1 mg/ml M2PYK; PBS-CM pH 7.4, room temperature, 12 h
# Method: Analytical gel chromatography was performed to characterise the oligomerisation/dissociation of M2PYK in the presence/absence of different amino acids. Aliquots of 400 µl of 0.1 mg/ml purified M2PYK were incubated with or without 10 mM amino acids in PBS-CM at room temperature at pH 7.4 overnight. After the incubation, samples were loaded independently onto a Superdex 200 PC 3.2/30 gel-filtration column. Samples of 25 µl were injected, and the column flow rate was maintained at 0.1 ml/min. Protein peaks were monitored using the absorbance at both 280 and 214 nm. The retention volumes for the M2PYK peaks were the same as those identified by SEC-MALS as monomer and tetramer peaks (using the same Superdex 200 column) in our previous study.
# Analytical gel chromatography was used to investigate the effects of amino acids on the oligomerisation of M2PYK. […] Dissociation studies of M2PYK using SEC-MALS [13] and ultracentrifugation show the predominant forms in solution are tetramer and monomer.
# M2PYK [3] = biological target: T1, M2PYK; experiment: M2PYK activity at sub-saturating PEP and ADP: amino-acid IC50/Ki and serine versus alanine/phenylalanine competition; type: biochemical; conditions: for pKi: calculated as IC50/2 (uncompetitive inhibitors), read-out: inhibitor constant (Ki) against M2PYK; for pIC50: sub-saturating PEP and ADP, 0 µM serine, read-out: IC50 against M2PYK
# Method: as §1, with “min.” for “min. Then, the same volume of assay buffer [PBS-CM supplemented with 10 mM MgCl2, 100 mM KCl, 1 mM NADH, 40 µmol/min ml LDH, as well as saturating ADP (4 mM) and titrated substrate PEP (0.15–10 mM)] was added.”
# The decrease in absorbance at 340 nm was measured for 5 min at 37°C using a plate reader. […]
# M2PYK [4] = biological target: T1, M2PYK; experiment: X-ray co-crystal structures of M2PYK with amino acids; conditions: wild-type M2PYK co-crystallised with the amino acid
# Method: Single crystals of M2PYK were obtained at 17°C by vapour diffusion using the hanging-drop technique. The drops were formed by mixing 1.5 µl of wild-type M2PYK (20 mg/ml) solution containing ligands with 1.5 µl of reservoir solution (composed of 11–16% PEG 3350, 100 mM sodium cacodylate, 50 mM MgCl2, and 100 mM KCl). […] The pH for obtaining optimal crystals was 7.2–7.8. Before data collection, crystals were dipped in a freezing solution consisting of reservoir solution supplemented with the same concentration of ligands as in the original solution, as well as up to 35% PEG 3350, which eliminated the appearance of ice rings. Diffraction data were collected at the Diamond synchrotron radiation facility in Oxfordshire, U.K. on beamline I03 (for the M2PYK/Ala structure), I04-1 (for the M2PYK/Phe and the M2PYK/Trp structures), and I24 (for the M2PYK/Ser structure). All datasets were obtained from a single crystal flash-frozen in liquid nitrogen. A more detailed description and discussion of the crystallisation trials is in the Supplementary Material.
# All four M2PYK structures were solved by molecular replacement using the program PHASER [40]. A monomer (Chain A) from the previously determined tetrameric structure of M2PYK (in R-state, PDB ID: 4B2D) served as the search model for the M2PYK/Ser structure. Chain A of a different M2PYK structure (in T-state, PDB ID: 4FXJ) was used as the search model for the M2PYK/Phe, M2PYK/Ala, and M2PYK/Trp structures. There were clear molecular replacement solutions for all structures. The resulting models were then subjected to 10 cycles of rigid body refinement using the program REFMAC [41]. Afterwards, manual changes were made to models to adjust side chain conformations and to add additional residues to the N terminus using COOT [42]. The models were then subjected to several rounds of translation libration screw refinement and restrained refinement, and ligand molecules were added where clear unbiased Fo–Fc electron density was observed. Water molecules were added to the model using COOT, and after several rounds of restrained refinement, R/Rfree values converged.
# M2PYK [5] = biological target: T1, M2PYK; experiment: ELISA with anti-M2PYK antibody binding the C–C interface (monomer–tetramer equilibrium); conditions: 10 mM amino acid; 0.0039–2.5 µg/ml M2PYK; 1 h, pH 7.4, room temperature
# Description: For the production of specific antibodies, a peptide immunogen (Supplementary Figure S1) specific for M2PYK was covalently conjugated with the carrier protein BSA, and injected into Balb/c female mice (6–7 weeks) at 2-week intervals. A mouse showing best selectivity for M2PYK was chosen as a spleen donor. After the production of a hybridoma, a cell line secreting a specific monoclonal antibody was screened and expanded. The specific monoclonal antibody against M2PYK was identified, purified and conjugated with horseradish peroxidase (HRP) for further ELISAs.
# A stock solution of anti-His-tag antibody in carbonate buffer (pH 9.6) was coated onto wells at 50 µl/well at 4°C overnight. The wells were then blocked with 100 µl/well of PBS/Tween 20/3% BSA for 1 h at room temperature. Titrated M2PYK (2.5–0.0039 µg/ml) was incubated with or without ligands (10 mM for all amino acids and 1 mM for FBP) in PBS/Tween 20/3% BSA at room temperature for 1 h. Then, 100 µl of the solution was added to each prepared well for an incubation of 1 h. Afterwards, a 100 µl aliquot of PBS/Tween 20/3% BSA containing 4 µg/ml HRP-conjugated M2PYK antibody was added to each well and incubated for 1 h at room temperature. Electrochemiluminescence solution was added at 50 µl/well to develop the luminescence, which was read immediately with a plate reader. Three washes with PBS/Tween 20/3% BSA were performed between each step.
# To investigate the effect of ligand binding on monomer–tetramer equilibrium at lower protein concentrations, we developed an ELISA assay. […] As the epitope is hidden in the tetrameric form of M2PYK, antibody binding on the C–C interface of M2PYK reflects the amount of monomer/dimer but not tetramer. The ELISA tests were performed using low concentrations of His6-M1/2PYK (0.0039–2.5 µg/ml) incubated with no ligand or 10 mM of each amino acid for 1 h in PBS-CM at pH 7.4 at room temperature. The incubated solutions were added to 96-well plates precoated with anti-His-tag antibodies. HRP-conjugated M2PYK antibodies were then incubated, followed by luminescence reading.
# M1PYK [6] = biological target: T2, M1PYK (Homo sapiens, UniProt P14618); experiment: PYK activity modulator screen (LDH-coupled enzymatic activity assay); type: biochemical; conditions: 2.5 mM ligand, sub-saturating PEP and ADP; for inhibition of M1PYK activity: pH 7.4, 37°C, relative to no ligand
# T2 construct: made in house; host or cells: Escherichia coli BL21(DE3), pET28a
# Method: (§2) For the identification of PYK activity modulators, enzymatic activity assays were performed as follows. A 1.9 µl aliquot of 20 mg/ml M1 or M2PYK in PBS-CM was added individually into […] of different amino acids at 5 mM in PBS-CM at pH 7.4 followed by an incubation at 37°C for 10 min. Then, the same volume of assay buffer [PBS-CM supplemented with 10 mM MgCl2, 100 mM KCl, 1 mM NADH, 40 µmol/min ml lactate dehydrogenase (LDH), as well as sub-saturating substrates PEP (1 mM) and ADP (0.8 mM)] was added into the protein solution and mixed (so the concentrations of all reagents were halved). The decrease in absorbance at 340 nm (the absorbance of NADH) was measured for 5 min at 37°C using a plate reader. PEP, ADP, LDH, NADH, FBP and all amino acids were from Sigma–Aldrich.
# (§3) FBP was used as a positive control. The reaction was performed after pre-incubation in the presence of sub-saturating substrates in PBS at pH 7.4 at 37°C as described in Experimental Procedures.
# M2PYK [7] = biological target: T1, M2PYK; experiment: as above; type: biochemical; conditions: 2.5 mM ligand, sub-saturating PEP and ADP; for activation of M2PYK activity: pH 7.4, 37°C, relative to no ligand
# Method: as §2, §3
# M1PYK [8] = test system: M1PYK; design: method as in PMID 5166752, PMID 16634623; conditions: cited from earlier work
# cell proliferation = test system: cell proliferation; design: method as in PMID 23530218; conditions: via activation or inhibition of M2PYK; cited from earlier work
# M2PYK [9] = test system: M2PYK; design: method as in Chaneton et al. 2012; conditions: 4 nM M2PYK; ref Chaneton et al. 2012; cited from earlier work
# M2PYK [10] = biological target: T1, M2PYK; design: method as in PMID 23530218; conditions: previously shown; cited from earlier work
# T2 sequence (P14618 1-531 isoform P14618-2): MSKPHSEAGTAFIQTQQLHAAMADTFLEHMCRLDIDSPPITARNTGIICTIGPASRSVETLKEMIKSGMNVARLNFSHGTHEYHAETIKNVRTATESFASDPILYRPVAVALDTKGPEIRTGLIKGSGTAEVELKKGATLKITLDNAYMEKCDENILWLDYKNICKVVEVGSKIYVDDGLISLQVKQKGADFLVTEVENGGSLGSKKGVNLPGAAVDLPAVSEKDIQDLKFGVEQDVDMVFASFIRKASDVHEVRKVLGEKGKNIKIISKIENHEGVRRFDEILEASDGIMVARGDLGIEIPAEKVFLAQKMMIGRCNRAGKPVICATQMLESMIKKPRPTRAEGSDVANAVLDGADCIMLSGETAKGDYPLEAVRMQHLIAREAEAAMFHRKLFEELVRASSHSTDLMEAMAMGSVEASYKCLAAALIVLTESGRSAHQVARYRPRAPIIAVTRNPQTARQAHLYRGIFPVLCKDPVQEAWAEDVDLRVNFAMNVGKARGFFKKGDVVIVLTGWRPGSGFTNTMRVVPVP
# T1 sequence (P14618 whole entry, the tested form may be a part): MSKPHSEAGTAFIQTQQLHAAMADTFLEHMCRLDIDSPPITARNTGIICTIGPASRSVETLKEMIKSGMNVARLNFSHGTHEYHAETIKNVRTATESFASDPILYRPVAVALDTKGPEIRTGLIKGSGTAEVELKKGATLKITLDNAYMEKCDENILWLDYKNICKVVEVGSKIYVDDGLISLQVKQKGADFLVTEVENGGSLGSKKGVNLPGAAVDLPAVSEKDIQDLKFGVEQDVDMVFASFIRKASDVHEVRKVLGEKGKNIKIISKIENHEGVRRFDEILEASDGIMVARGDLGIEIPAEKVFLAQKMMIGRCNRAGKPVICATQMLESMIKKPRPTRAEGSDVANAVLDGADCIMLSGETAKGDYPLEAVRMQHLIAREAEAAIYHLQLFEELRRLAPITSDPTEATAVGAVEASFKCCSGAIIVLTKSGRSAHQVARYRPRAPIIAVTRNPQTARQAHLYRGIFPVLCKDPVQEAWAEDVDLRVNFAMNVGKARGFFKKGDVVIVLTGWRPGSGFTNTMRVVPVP
mode of inhibition of M2PYK (M2PYK [1]),effect on M2PYK oligomerisation (tetramer versus monomer) (M2PYK [2]),pKi (M2PYK [3]),pIC50 (M2PYK [3]),Conformation of M2PYK tetramer in co-crystal structure (M2PYK [4]),oligomeric state of M2PYK at low protein concentration (M2PYK [5]),inhibition of M1PYK activity (M1PYK [6]) [%],activation of M2PYK activity (M2PYK [7]) [%],Molecule,also measured
allosteric uncompetitive inhibitors,stabilised tetramers over monomers,4.21,3.91,T-state,predominantly tetrameric,,,"C[C@H](N)C(=O)O [alanine, L-alanine]","M2PYK activity (M2PYK [3]; alanine 200–300 µM in the presence of serine ∼0.6 mM): ~65%; M2PYK activity (M2PYK [3]; alanine 200–300 µM, no serine): ~10%"
,,,,,,10,,NCC(=O)O [glycine],
,,,,,,,~30,N[C@@H](Cc1c[nH]cn1)C(=O)O [histidine],M2PYK activity normalised to activity in absence of ligands (100%) (M2PYK [7]): higher than 120%
,,,,,,10,,NCCCC[C@H](N)C(=O)O [lysine],
allosteric uncompetitive inhibitors,stabilised tetramers over monomers,3.69,3.39,T-state,predominantly tetrameric,10,,"N[C@@H](Cc1ccccc1)C(=O)O [phenylalanine, L-phenylalanine]","M2PYK activity (M2PYK [3]; phenylalanine at ∼0.2 mM, no serine): ~65%; M2PYK activity (M2PYK [3]; phenylalanine ∼0.2 mM in the presence of 0.6 mM serine): nearly full activity; regulatory effect on M1PYK enzymatic activity (M1PYK [8]): non-competitive inhibition; effect on cell proliferation (cell proliferation): favours cell proliferation"
,stabilised tetramers over monomers,,,R-state,predominantly tetrameric,,~30,"N[C@@H](CO)C(=O)O [serine, L-serine]",M2PYK activity normalised to activity in absence of ligands (100%) (M2PYK [7]): higher than 120%; effect on M2PYK activity in end-point assay (M2PYK [9]): showed activation
allosteric uncompetitive inhibitors,stabilised tetramers over monomers,3.65,3.35,T-state,predominantly tetrameric,,,"N[C@@H](Cc1c[nH]c2ccccc12)C(=O)O [tryptophan, L-tryptophan]",
,,,,,,,~40,"fructose 1,6-bisphosphate [FBP, reference compound]",effect on M2PYK oligomerisation (M2PYK [10]): stabilised the tetrameric form; regulatory effect on M1PYK activity (M1PYK [6]): little or no regulatory effect; effect on cell proliferation (cell proliferation): inhibits cell proliferation; effect on M2PYK activity in end-point assay (M2PYK [9]): showed activation

Molecule,mode of inhibition of M2PYK (M2PYK [1]),effect on M2PYK oligomerisation (tetramer versus monomer) (M2PYK [2]),pKi (M2PYK [3]),pIC50 (M2PYK [3]),Conformation of M2PYK tetramer in co-crystal structure (M2PYK [4]),oligomeric state of M2PYK at low protein concentration (M2PYK [5]),inhibition of M1PYK activity (M1PYK [6]) [%],activation of M2PYK activity (M2PYK [7]) [%],also measured
N=C(N)NCCC[C@H](N)C(=O)O [arginine],,,,,,,10,,

# Reference: PMC5980995, “An allostatic mechanism for M2 pyruvate kinase as an amino-acid sensor” (Biochemical Journal, 2018)
